# Tests used:
# human 5HT7 receptors = target: T1, human 5HT7 receptors (Homo sapiens, UniProt P34969); assay: h5-HT7 receptor radioligand binding ([3H]5-CT); conditions: pKi reported on a scale of 1 through 5; read-out: 5HT7 (pKi) (converted)
# T1 construct: expressed in transfected cells; host or cells: Chinese hamster ovary cells (membranes)
# Summary of the method: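 Competition binding on receptor-bearing membranes or cells: one fixed radioligand concentration at equilibrium, with a range of unlabelled test compound concentrations. Bound and free radioligand separated by filtration. Nonspecific binding defined with a known blocker, and displacement curves corrected for it.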
# [1] = Metabolism in pooled human liver microsomes; assay type: in vitro ADME; conditions: for HLMs Enzyme: enzyme type metabolising the compound in HLMs (with/without NADPH); for half-life: pH 7.4, pooled human liver microsomes, disappearance of parent, read-out: HLMs t1/2
# Description: Compounds were incubated in pooled human liver microsomes (HLMs) in the presence or absence of an NADPH-generating system. NADPH is required for the activity of cytochrome P450 (CYP) and other oxidative enzymes present in HLMs, but not for esterase activity. An additional incubation was carried out in the absence of HLM to assess compound stability. The disappearance of parent and the appearance of the corresponding acid metabolite were monitored over the time course of the incubations using LC-MS/MS.
# A stock solution (20 mM) of each proprietary compound in DMSO was prepared and stored at −20° C. until needed. A working stock solution (0.2 mM) was prepared for each proprietary compound by adding an aliquot of the stock solution (10 μL) to acetonitrile (990 μL).
# An aliquot of the HLM solution was removed from the −80° C. freezer and placed on ice. Tris Buffer (50 mM, pH 7.4) containing MgCl2 (hexahydrate, 5 mM) was pre-incubated in a 37° C. water bath. A set of Eppendorf microfuge tubes (1.5 mL) was appropriately labeled. To each tube was added Tris buffer with or without the NADPH generating system. An aliquot of pooled HLMs was added to all the incubations except those that were the buffer control.
# Tubes were preincubated for 5 min in a shaking incubator bath (37° C., 900 rpm) and the reaction was initiated by adding an aliquot of the proprietary working solution (5 μL). The additions were timed carefully in order to coordinate the sample collections below. A small aliquot (50 μL) was removed at […] and delivered to the respective tubes containing dextrorphan (100 μL of 0.5 μg/mL solution) dissolved in methanol or acetonitrile. The samples were centrifuged at 14000 g for 15 minutes at 4° C. The supernatant was transferred to clean labeled HPLC injection vials and stored at −80° C. until analyzed. An aliquot of the supernatant (25 μL) was added to water (75 μL), mixed and injected onto the LC-MS/MS system for analysis. Results for some compounds of the invention can be found below in the table in Example 20.
# human 5HT2C receptors = target: T2, human 5HT2C receptors (Homo sapiens, UniProt P28335); assay: h5-HT2C receptor radioligand binding ([3H]Mesulergine); conditions: for Ki: pKi reported on a scale of 1 through 5; for binding to 5-HT2c: in words
# T2 construct: expressed in transfected cells; host or cells: human embryo kidney cells (membranes)
# T2 sequence (P28335 33-458): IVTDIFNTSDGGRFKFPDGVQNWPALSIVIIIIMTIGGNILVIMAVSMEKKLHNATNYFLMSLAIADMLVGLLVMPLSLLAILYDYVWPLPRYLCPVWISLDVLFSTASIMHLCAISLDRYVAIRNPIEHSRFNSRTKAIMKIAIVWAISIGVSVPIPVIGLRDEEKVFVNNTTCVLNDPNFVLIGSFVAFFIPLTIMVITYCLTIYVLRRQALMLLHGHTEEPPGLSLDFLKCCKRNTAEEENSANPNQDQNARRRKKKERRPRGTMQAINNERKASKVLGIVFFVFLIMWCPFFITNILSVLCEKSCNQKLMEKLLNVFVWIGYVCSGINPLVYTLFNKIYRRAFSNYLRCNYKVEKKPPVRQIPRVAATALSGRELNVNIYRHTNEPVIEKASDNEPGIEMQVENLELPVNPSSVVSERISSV
# Summary of the method: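 Competition binding: membranes incubated to equilibrium with a single concentration of [3H]mesulergine and a range of unlabeled test compound concentrations, then filtered. Nonspecific binding defined with a known receptor blocker; displacement concentration-response, corrected for nonspecific binding, gave the affinity measure.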
# pig liver esterase = assay: Metabolism by pig liver esterase with and without human plasma proteins; assay type: in vitro ADME
# Description: The esterase-mediated metabolism of these compounds was studied using commercially available pig liver esterase in the presence and absence of human plasma proteins. The disappearance of parent was monitored over the time course of the incubations using a LC-UV detection system.
# A stock solution and working stock solution was prepared for each proprietary compound as described for the human liver microsomal incubations. Working solutions of pig liver esterase in potassium phosphate buffer (10 mM, pH 7.4) and pig liver esterase in human plasma protein were prepared by dissolving pig liver esterase (2.51 mg) in the phosphate buffer or plasma protein solutions, respectively.
# A set of three Eppendorf microfuge tubes (1.5 mL) was appropriately labeled. To each tube was added 1.5 mL of phosphate buffer, pig liver esterase in buffer, or pig liver esterase in human plasma protein solution. These solutions were pre-incubated (37° C., 900 rpm) and the reactions were initiated by adding an aliquot (37.5 μL) of the working solution of proprietary compound to each tube. An aliquot (100 μL) from each tube was removed at time 0, 5, 30, 60, and 120 min and added to a tube containing acetonitrile (200 μL) to stop the reaction.
# The samples were centrifuged at 14000 g for 15 minutes at 4° C. The supernatant was transferred to clean labeled HPLC injection vials and stored at −80° C. until analyzed. An aliquot of the supernatant (25 μL) was injected onto the LC-UV system for analysis.
# [2] = system: locomotor activity in rats; assay: Spontaneous locomotor activity (open field); assay type: in vivo
# Description: One of the common side effects of many antipsychotic drugs is sedation. It has been shown that agents that have sedative actions in man have the same effect in animals. The purpose of these studies was to evaluate the effect of test compounds on the locomotor activity in rats, which is used to assess the sedative properties of antipsychotic compounds.
# The animals (male Sprague Dawley rats, about 300-450 g; Charles River) were assessed for ambulation for 30 minutes before and for 30 min after vehicle or test compounds. […] Locomotor activity is quantified by the number of photobeams crossed by the animal over several 3×10 min intervals.
# [3] = system: NMDA antagonist-induced deficits in prepulse inhibition in rats; assay: Prepulse inhibition (PPI), NMDA antagonist (PCP)-induced deficit; conditions: ip 45 min before, PCP 1.5 mg/kg s.c.
# [4] = pig liver esterase in potassium phosphate buffer, pH 7.4, pig liver esterase in phosphate buffer, no plasma protein
# [5] = pig, pig liver esterase in human plasma protein solution
# T1 sequence (P34969 whole entry): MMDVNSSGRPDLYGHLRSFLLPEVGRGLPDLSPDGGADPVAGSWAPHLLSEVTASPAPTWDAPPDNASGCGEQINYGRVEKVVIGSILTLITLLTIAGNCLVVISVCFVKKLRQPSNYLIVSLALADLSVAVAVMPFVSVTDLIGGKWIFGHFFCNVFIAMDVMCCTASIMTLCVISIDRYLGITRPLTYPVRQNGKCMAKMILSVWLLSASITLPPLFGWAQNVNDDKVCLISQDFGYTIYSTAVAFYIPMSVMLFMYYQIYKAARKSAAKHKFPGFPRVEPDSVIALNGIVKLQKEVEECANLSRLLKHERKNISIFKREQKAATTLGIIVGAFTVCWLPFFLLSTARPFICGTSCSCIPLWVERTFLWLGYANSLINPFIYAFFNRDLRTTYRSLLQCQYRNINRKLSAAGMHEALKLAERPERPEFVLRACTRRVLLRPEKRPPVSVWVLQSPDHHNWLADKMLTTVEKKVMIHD
Structure (SMILES),Ki (human 5HT7 receptors) [nM],HLMs Enzyme [1],half-life [1] [min],Ki (human 5HT2C receptors) [nM],half-life at 4.9 µM (pig liver esterase; [4]) [min],half-life at 4.9 µM (pig liver esterase; [5]) [min],locomotor activity in rat (open field) ([2]; 0.03-10 mg/kg),NMDA antagonist-induced deficits in prepulse inhibition [3],binding to 5-HT2c (human 5HT2C receptors),"affinity for the 5-HT2c receptors, fold lower than clozapine (human 5HT2C receptors; relative to clozapine) [fold]",locomotor activity in rat (open field) ([2]; 10 mg/kg),Pig Liver Esterase (t1/2 min.) (+) plasma (pig liver esterase; pig liver esterase in human plasma protein solution),"Pig Liver Esterase (t1/2 min.) (−) plasma (pig liver esterase; pig liver esterase in phosphate buffer, no plasma protein)"
"O=C(C[C@H]1CN(C2=Nc3cc(Cl)ccc3Oc3ccccc32)CCN1)OC1CCOCC1 [DV, (S,E)-tetrahydro-2H-pyran-4-yl 2-(4-(8-chlorodibenzo[b,f][1,4]oxazepin-11-yl)piperazin-2-yl)acetate]",1580 to 3890,Esterase,60,10 to 97.7,< 5,15,–,–,–,–,–,–,–
"CCOC(=O)CC1CN(C2=Nc3ccc(F)cc3Oc3ccccc32)CCN1 (stereo not drawn) [J, (E)-ethyl 2-(4-(7-fluorodibenzo[b,f][1,4]oxazepin-11-yl)piperazin-2-yl)acetate]",–,Esterase,10,100 to 977,< 5,15,–,–,–,–,–,–,–
"O=C(C[C@H]1CN(C2=Nc3cc(Cl)ccc3Oc3ccccc32)CCN1)OC1CCCC1 [DR, (S,E)-cyclopentyl 2-(4-(8-chlorodibenzo[b,f][1,4]oxazepin-11-yl)piperazin-2-yl)acetate]",1580 to 3890,Esterase,30,10 to 97.7,< 5,15,–,–,–,–,–,–,–
"CC(C)OC(=O)CC1CN(C2=Nc3cc(Cl)ccc3Oc3ccccc32)CCN1 (stereo not drawn) [L, (E)-isopropyl 2-(4-(8-chlorodibenzo[b,f][1,4]oxazepin-11-yl)piperazin-2-yl)acetate]",–,–,30,10 to 97.7,< 5,30,–,–,–,–,–,–,–
"O=C(C[C@H]1CN(C2=Nc3cc(Cl)ccc3Oc3ccccc32)CCN1)O[C@H]1CCOC1 [EQ, (S)-tetrahydrofuran-3-yl 2-((S)-4-((E)-8-chlorodibenzo[b,f][1,4]oxazepin-11-yl)piperazin-2-yl)acetate]",–,Esterase,15,–,5,30,–,–,–,–,–,–,–
"CCOC(=O)CC1CN(C2=Nc3cc(Cl)ccc3Oc3ccccc32)CCN1 (stereo not drawn) [A, (E)-ethyl 2-(4-(8-chlorodibenzo[b,f][1,4]oxazepin-11-yl)piperazin-2-yl)acetate]",–,Esterase,30,10 to 97.7,< 5,15,–,–,–,–,–,–,–
"CCOC(=O)C[C@H]1CN(C2=Nc3cc(Cl)ccc3Oc3ccccc32)CCN1 [Compound K, (S,E)-ethyl 2-(4-(8-chlorodibenzo[b,f][1,4]oxazepin-11-yl)piperazin-2-yl)acetate]",631 to 1550,–,–,10 to 97.7,–,–,did not reduce,Restore,bind,1.2,–,–,–
"O=C(O)C[C@H]1CN(C2=Nc3cc(Cl)ccc3Oc3ccccc32)CCN1 [Compound Q, (S,E)-2-(4-(8-chlorodibenzo[b,f][1,4]oxazepin-11-yl)piperazin-2-yl)acetic acid]",–,–,–,100 to 977,–,–,–,Restore,bind,–,did not reduce,–,–
"CCC(C)OC(=O)C[C@H]1CN(C2=Nc3cc(Cl)ccc3Oc3ccccc32)CCN1C (stereo partly drawn) [DY, sec-butyl 2-((S)-4-((E)-8-chlorodibenzo[b,f][1,4]oxazepin-11-yl)-1-methylpiperazin-2-yl)acetate]",> 10000,Esterase,< 5,100 to 977,< 5,30,–,–,–,–,–,–,–
"CN1CCN(C2=Nc3cc(Cl)ccc3Oc3ccccc32)C[C@@H]1CC(=O)NCC(F)(F)C(F)(F)F [EU, (S,E)-2-(4-(8-chlorodibenzo[b,f][1,4]oxazepin-11-yl)-1-methylpiperazin-2-yl)-N-(2,2,3,3,3-pentafluoropropyl)acetamide]",–,–,60,–,–,–,–,–,–,–,–,Stable,Stable
"CCOC(=O)C[C@H]1CN(C2=Nc3cc(Cl)ccc3Oc3ccccc32)CCN1CCC(C)C [ER, (S,E)-ethyl 2-(4-(8-chlorodibenzo[b,f][1,4]oxazepin-11-yl)-1-isopentylpiperazin-2-yl)acetate]",–,Esterase,5,–,< 5,60,–,–,–,–,–,–,–
"CC(C)OC(=O)CC1CN(C2=Nc3ccc(F)cc3Oc3ccccc32)CCN1 (stereo not drawn) [M, (E)-isopropyl 2-(4-(7-fluorodibenzo[b,f][1,4]oxazepin-11-yl)piperazin-2-yl)acetate]",–,–,30,100 to 977,< 5,15,–,–,–,–,–,–,–
